The values below come from patent publication US20210236391A1, “Dental Product, use of a Dental Product and methods of use of a dental product” (DR HEFF'S PRODUCTS LIMITED, priority 2015, published 2021).

A short description of assay [1]: Caries lesion depth by fluorescence microscopy after in vitro pH-proteolytic cycling. The arrangement: species or system bovine. The settings on record: after treatments and pH-proteolytic cycling for 8 days. As to the method: An objective of the experimental study was to investigate the effects of mints containing bioactive agents, specifically the xylitol, ACP and eGCG, in the re-mineralization of root dentin surfaces. […] The caries lesions depths and porosity as well as mineral density (hydroxyapatite content) were estimated using fluorescence microscopy and micro-computed tomography. Extracted sound bovine incisors were freshly collected from a slaughterhouse, cleaned and stored at 4° C. in 0.1% thymol for no longer than 2 weeks. […] Half of each sample was used for fluorescence microscopy and the other half was used for micro-computed tomography. […] Samples were analyzed with a Fluorescence Microscope (DM16000 B, Leica), using TEX and DIC (differential interference contrast) channels. Fluorescence intensity line profiles obtained in TEX channel images of the pre and post-treatment lesions were analyzed in Image J Software (NIH), thereby providing mean intensity values (per pixel) for red emission channel of each image. The fluorescence intensity is directly related to the porosity of the de-mineralized dentin, where increased porosity is directly related to increased fluorescence intensity. Fluorescence data was presented as percentage difference from post-treatment and pre-treatment lesions of each specimen. […]

Assay [2] in a line: Apparent mineral density by micro-computed tomography after in vitro pH-proteolytic cycling. The arrangement: species or system bovine. The following applies: for effect on mineral density of the caries lesion (in words): after pH-proteolytic cycling and treatments, compared to AS control; for increase percentage of the apparent mineral density (mg HA/ccm): mean values after pH-proteolytic cycling and treatments, micro-CT. As to the method:
An objective of the experimental study was to investigate the effects of mints containing bioactive agents, specifically the xylitol, ACP and eGCG, in the re-mineralization of root dentin surfaces. […] The caries lesions depths and porosity as well as mineral density (hydroxyapatite content) were estimated using fluorescence microscopy and micro-computed tomography. Extracted sound bovine incisors were freshly collected from a slaughterhouse, cleaned and stored at 4° C. in 0.1% thymol for no longer than 2 weeks. Two root fragments (5×4×1 mm) from the cervical portion (mesial and distal) of the root were obtained from each tooth using diamond disk mounted in a cutting machine (Isomet 1000, Buehler, Lake Bluff, IL, USA). The dentin surfaces were polished using #600 and #800 abrasive paper (Carbimet, Buehler) under constant water irrigation. The entire surface of the fragments was sealed with acid-resistant nail polish, except for a 4×3 mm window on the polished dentin surface. The root fragments were placed in a demineralization solution (2.2 mM CaCl2.2H2O, 2.2 mM KH2PO4, 50 mM acetate, pH 4.6) for 96 h at 37° C. to create initial caries lesions of approximately 120 μm-deep (1). Following lesion development, the fragments were rinsed thoroughly with deionized water, and half of the specimens' windows were covered with an acid-resistant nail polish to maintain the baseline lesion. […] The concentrations were optimized to simulate the in vivo conditions in which the normal salivary flow is 0.5 mL/min (2). Thus, one third of the mints (g) were dissolved in 0.5 ml of artificial saliva and the ingredients concentrations were kept at same ratio as in the original mint formulation. […] All solutions were prepared daily prior to use. In addition to pH cycling, the overnight re-mineralization solutions had bacterial collagenase from Chlostridium Histolycum (100 μg/ml) to simulate enzymatic challenge. Each specimen was sectioned perpendicularly to the varnished area so that each section included the baseline and post-treatment lesions. Half of each sample was used for fluorescence microscopy and the other half was used for micro-computed tomography. Specimens (n=6 per group) were fixed in 10% neutral buffered formalin for 24 h. Specimens were held securely in a specimen holder, which were soaked with phosphate-buffered saline (PBS). […] The manufacturer's software was used to filter noise and segment the data at a threshold of 220. Tissue mineral density (based on a standard calibration phantom provided by the manufacturer) was determined (mg/cc of hydroxyapatite). […] The assumption of equality of variances and normal distribution of errors were verified using Levene's test. […]

Assay [3] can be described thus: Rhodamine B fluorescence intensity (lesion porosity) after in vitro pH-proteolytic cycling. Also noted: species or system bovine. The settings on record: for decrease percentage of the mean Rhodamine fluorescence (F) exhibited by caries lesions: after treatments (suspended in artificial saliva, 5 times per day for 3 minutes) and pH-proteolytic cycling for 8 days. As to the method:
An objective of the experimental study was to investigate the effects of mints containing bioactive agents, specifically the xylitol, ACP and eGCG, in the re-mineralization of root dentin surfaces. […] The caries lesions depths and porosity as well as mineral density (hydroxyapatite content) were estimated using fluorescence microscopy and micro-computed tomography. Extracted sound bovine incisors were freshly collected from a slaughterhouse, cleaned and stored at 4° C. in 0.1% thymol for no longer than 2 weeks. Two root fragments (5×4×1 mm) from the cervical portion (mesial and distal) of the root were obtained from each tooth using diamond disk mounted in a cutting machine (Isomet 1000, Buehler, Lake Bluff, IL, USA). The dentin surfaces were polished using #600 and #800 abrasive paper (Carbimet, Buehler) under constant water irrigation. The entire surface of the fragments was sealed with acid-resistant nail polish, except for a 4×3 mm window on the polished dentin surface. The root fragments were placed in a demineralization solution (2.2 mM CaCl2.2H2O, 2.2 mM KH2PO4, 50 mM acetate, pH 4.6) for 96 h at 37° C. to create initial caries lesions of approximately 120 μm-deep (1). Following lesion development, the fragments were rinsed thoroughly with deionized water, and half of the specimens' windows were covered with an acid-resistant nail polish to maintain the baseline lesion. […] The concentrations were optimized to simulate the in vivo conditions in which the normal salivary flow is 0.5 mL/min (2). Thus, one third of the mints (g) were dissolved in 0.5 ml of artificial saliva and the ingredients concentrations were kept at same ratio as in the original mint formulation. […] All solutions were prepared daily prior to use. In addition to pH cycling, the overnight re-mineralization solutions had bacterial collagenase from Chlostridium Histolycum (100 μg/ml) to simulate enzymatic challenge. Each specimen was sectioned perpendicularly to the varnished area so that each section included the baseline and post-treatment lesions. Half of each sample was used for fluorescence microscopy and the other half was used for micro-computed tomography. […] The assumption of equality of variances and normal distribution of errors were verified using Levene's test. Analysis of variance (ANOVA) followed by Scheffe or Game-Howell tests were performed at α=0.05 using SPSS 20 software.

The nature of assay [4]: In vitro pH-proteolytic cycling model, overall re-mineralization and tissue observations. The arrangement: species or system bovine. The text has this:
An objective of the experimental study was to investigate the effects of mints containing bioactive agents, specifically the xylitol, ACP and eGCG, in the re-mineralization of root dentin surfaces. […] The caries lesions depths and porosity as well as mineral density (hydroxyapatite content) were estimated using fluorescence microscopy and micro-computed tomography.
The objective of this study was to investigate the effects of mints containing bioactive agents (e.g. xylitol, ACP and eGCG) in the re-mineralization of root dentin surfaces. […] The caries lesions depths and porosity as well as mineral density (hydroxyapatite content) were estimated using fluorescence microscopy and micro computed tomography.
Extracted sound bovine incisors were freshly collected from a slaughterhouse, cleaned and stored at 4° C. in 0.1% thymol for no longer than 2 weeks. Two root fragments (5×4×1 mm) from the cervical portion (mesial and distal) of the root were obtained from each tooth using diamond disk mounted in a cutting machine (Isomet 1000, Buehler, Lake Bluff, IL, USA). The dentin surfaces were polished using #600 and #800 abrasive paper (Carbimet, Buehler) under constant water irrigation. The entire surface of the fragments was sealed with acid-resistant nail polish, except for a 4×3 mm window on the polished dentin surface. […]

The conditions of assay [5]: five xylitol lozenges spaced across the day, caries-active adults; cited from earlier work.

Entries after “also recorded” stand apart in the source; their conditions may differ.

On to `O=C(O[C@@H]1Cc2c(O)cc(O)cc2O[C@@H]1c1cc(O)c(O)c(O)c1)c1cc(O)c(O)c(O)c1` [eGCG, epigallocatechin gallate], for which the “caries lesion depth change from initial lesions (in words)” value in assay [1] is “Significant (% caries lesion depth) decrease”. In addition, in assay [2], the “effect on mineral density of the caries lesion (in words)” value is recorded as “promotes mineral density similar to fluoride; also recorded: increased mineral density” and the “increase percentage of the apparent mineral density (mg HA/ccm)” value is 70.12%. The “decrease percentage of the mean Rhodamine fluorescence (F) exhibited by caries lesions” value (“decrease percentage” below) in assay [3] turned out to be 85.72%. Further, in assay [3] (after treatments and pH-proteolytic cycling for 8 days), the “lesion porosity / fluorescence decrease compared to AS (negative control), statistical significance” value is recorded as “statistically significant differences; also recorded: significant decrease in lesion porosity”.

Take `OC[C@@H](O)[C@H](O)[C@@H](O)CO` [xylitol]: the dental tissue loss result in assay [4] (after pH-proteolytic cycling and treatments, in artificial saliva) is “dental tissue loss occurs; also recorded: Dental tissue loss was mainly observed”. Further, the “caries re-mineralization (overall conclusion)” value in assay [4] (artificially induced root caries, in vitro pH-proteolytic cycling) was “no significant effect”. Further, in assay [5], the “caries-preventive effect on root surfaces” value is reported as “appears to have a caries-preventive effect on root surfaces” and the “incidence of smooth-surface, occusal-surface or proximal-surface caries, xylitol vs control participants” value is “no statistically significant difference”. In addition, in assay [2], the “effect on mineral density of the caries lesion (in words)” value was “does not help to increase mineral density”. In assay [3], the “decrease percentage” value is recorded as 34.92%.

Consider `[F-].[Na+]` [NaF, sodium fluoride], for which, in assay [2], the “increase percentage of the apparent mineral density (mg HA/ccm)” value is 165.53%. Moreover, the “decrease percentage” value in assay [3] came out at 5.60%.
